Experimental data published in patent US9055741B2, “Contacting crop plants with compositions” (Rohm and Haas Company, priority 2006, dated 2015).

Experiments:
Assay type in all cases: in vivo
Fuji apple trees = assay: Fuji apples: staining after harvest and storage; conditions: 250 ppm, approximately 211 g/ha (520 g/acre) each, Untreated 12
Text: Fuji apple trees were sprayed prior to harvest either one or two times, with spray containing 250 ppm of 1-MCP. Each spraying provided treatment of approximately 211 g/ha ([…]). After harvesting and storage, the apples were inspected for staining.

wheat = assay: Wheat field treatment: yield and frost damage; conditions: for Frost Damage (percentage of barren husks): untreated 21; for Yield: untreated 3890
Description: (§1) Spray tank was filled with approximately two-thirds of the total volume of water required. The amount of Powder 1 or Powder 2 was weighed according to the rate and total volume of spray being prepared. The appropriate amount of was calculated to give 1% v/v of total spray volume. Adjuvant 1 was added to the spray tank, which was agitated until the mixture turned milky white. Powder 1 or Powder 2 was added to the spray container, which was then gently (not vigorously) agitated. The remaining water was added, making sure all of the powder was wet and washed off of the sides of the tank (if any had deposited there). The spray tank was then swirled or stirred for at least two minutes (2-5 minutes) to ensure good mixing. Between 5 and 60 minutes thereafter, plants were sprayed with the mixture.
(§2) Flat fan nozzles were used, producing droplet size of 100 to 500 micrometers. Spray rate of mixture was 500 liter per hectare. Backpack sprayer was used. Spraying was performed before 10:00 am.
(§3) Using methods similar to those of Example 1, wheat was sprayed at stage F10.5. Frost damage was assessed by examining the portion of the seed head damaged; the percentage of barren husks is reported. Damage from fusarium disease was assessed as a percentage of seed heads damaged by the disease organism.

cotton = assay: Cotton field treatment: lint yield; conditions: UTC 228.0, Adjuvant 1 only 245.1
Description: as §1, §2
Using methods similar to those of Example 1, cotton was also tested. Each treated group of plants was treated either two or three times, as follows:
The crop yield was assessed as the weight of lint per hectare. Treatment types, treatment amounts (grams of AI per hectare), and results were as follows. Many of the treatments lead to improvements in the yield of lint.

fusarium disease = assay: Wheat field treatment: damage from fusarium disease; conditions: untreated 6
Description: as §1, §2, §3

Soybean plants = assay: Soybean crop yield and protein content; conditions: for Protein %: untreated 36.93/36.87; for Yield: untreated 3607.20/3687.67
Description: as §1, §2
Soybean plants were treated using methods similar to those of Example 1. Treatment was performed when the plants were at one or more of the following growth stages: R2, R3, and R5.5.

[1] = system: Golden Delicious apple trees; assay: Golden Delicious fruit drop after pre-harvest spray; conditions: NAA 20 ppm, AVG 125 ppm, Powder 1 375 g AI/ha
Description: as §1, §2
Using methods similar to those of Example 1, Golden Delicious apple trees were sprayed one week before the apples would normally be harvested for commercial use. The apples were left on the trees to observe postharvest drop. The spray containing Powder 1 was used to give 375 gram of AI per hectare. NAA was used at 20 ppm, and AVG was used at 125 ppm. […]

[2] = 1 g/ha, timing R2, R3, and R5.5
[3] = 10 g/ha, timing R2, R3, and R5.5
[4] = 30 g/ha, timing R2, R3, and R5.5
[5] = dosage Exaggerated 1, every 2 weeks
[6] = dosage Exaggerated 2, every 2 weeks

CC1=CC1 [1-MCP, 1-methylcyclopropene] was tested, and the “% Staining” value (Fuji apple trees; 1 spray application) was 8.5%, the “% Staining” value (Fuji apple trees; 2 spray applications) was 3% and the “Frost Damage (percentage of barren husks)” value (wheat; 10 g/ha AI at stage F10.5) was 6%. The Yield (wheat; 10 g/ha AI at stage F10.5) was 4458 kg dry weight/ha, the “Frost Damage (percentage of barren husks)” value (wheat; 25 g/ha AI at stage F10.5) was 3% and the Yield (wheat; 25 g/ha AI at stage F10.5) was 4522 kg dry weight/ha. For the same molecule, the Lint (cotton; 250 g/ha AI, type EB 2) was 245.3 kg/ha, the Lint (cotton; 250 g/ha AI, type EB 3) was 250.2 kg/ha and the Lint (cotton; 250 g/ha AI, type PHS 2) was 230.6 kg/ha. It also gave a Lint (cotton; 250 g/ha AI, type PHS 3) of 231.8 kg/ha, a Lint (cotton; 500 g/ha AI, type EB 2) of 234.2 kg/ha and a Lint (cotton; 500 g/ha AI, type EB 3) of 261.3 kg/ha. For the same molecule, the Lint (cotton; 500 g/ha AI, type PHS 2) was 257.6 kg/ha, the Lint (cotton; 500 g/ha AI, type PHS 3) was 262.0 kg/ha and the Lint (cotton; 1250 g/ha AI, type EB 2) was 235.0 kg/ha. For the same molecule, the Lint (cotton; 1250 g/ha AI, type EB 3) was 260.7 kg/ha, the Lint (cotton; 1250 g/ha AI, type PHS 2) was 253.9 kg/ha and the Lint (cotton; 1250 g/ha AI, type PHS 3) was 241.4 kg/ha. The “Disease Damage (percentage of seed heads damaged)” value (fusarium disease; 10 g/ha AI at stage F10.5) was 0.5%, the “Disease Damage (percentage of seed heads damaged)” value (fusarium disease; 25 g/ha AI at stage F10.5) was 3% and the Protein % (Soybean plants; [2]) was 38.4%. For the same molecule, the Yield (Soybean plants; [2]) was 3955.68 kg/ha, the Protein % (Soybean plants; 1 g/ha, timing R2) was 37.88% and the Yield (Soybean plants; 1 g/ha, timing R2) was 3691.44 kg/ha. The Protein % (Soybean plants; 1 g/ha, timing R2 and R3) was 37.85%, the Yield (Soybean plants; 1 g/ha, timing R2 and R3) was 3786.48 kg/ha and the Protein % (Soybean plants; 1 g/ha, timing R2 and R5.5) was 38.45%. For the same molecule, the Yield (Soybean plants; 1 g/ha, timing R2 and R5.5) was 3704.04 kg/ha, the Protein % (Soybean plants; 1 g/ha, timing R3) was 37.89% and the Yield (Soybean plants; 1 g/ha, timing R3) was 3795.48 kg/ha. The Protein % (Soybean plants; 1 g/ha, timing R3 and R5.5) was 38.75%, the Yield (Soybean plants; 1 g/ha, timing R3 and R5.5) was 3763.80 kg/ha and the Protein % (Soybean plants; 1 g/ha, timing R5.5) was 38.25%. It also gave a Yield (Soybean plants; 1 g/ha, timing R5.5) of 3659.76 kg/ha, a Protein % (Soybean plants; [3]) of 37.87% and a Yield (Soybean plants; [3]) of 4119.48 kg/ha. For the same molecule, the Protein % (Soybean plants; 10 g/ha, timing R2) was 37.67%, the Yield (Soybean plants; 10 g/ha, timing R2) was 3671.64 kg/ha and the Protein % (Soybean plants; 10 g/ha, timing R2 and R3) was 38.27%. It also gave a Yield (Soybean plants; 10 g/ha, timing R2 and R3) of 3872.84 kg/ha, a Protein % (Soybean plants; 10 g/ha, timing R2 and R5.5) of 38.63% and a Yield (Soybean plants; 10 g/ha, timing R2 and R5.5) of 3817.80 kg/ha. For the same molecule, the Protein % (Soybean plants; 10 g/ha, timing R3) was 38.64%, the Yield (Soybean plants; 10 g/ha, timing R3) was 3757.68 kg/ha and the Protein % (Soybean plants; 10 g/ha, timing R3 and R5.5) was 38.3%. The Yield (Soybean plants; 10 g/ha, timing R3 and R5.5) was 3791.52 kg/ha, the Protein % (Soybean plants; 10 g/ha, timing R5.5) was 38.32% and the Yield (Soybean plants; 10 g/ha, timing R5.5) was 3721.32 kg/ha. For the same molecule, the Protein % (Soybean plants; [4]) was 37.48%, the Yield (Soybean plants; [4]) was 4347.00 kg/ha and the Protein % (Soybean plants; 30 g/ha, timing R2) was 38.08%. For the same molecule, the Yield (Soybean plants; 30 g/ha, timing R2) was 3702.24 kg/ha, the Protein % (Soybean plants; 30 g/ha, timing R2 and R3) was 36.73% and the Yield (Soybean plants; 30 g/ha, timing R2 and R3) was 4118.76 kg/ha. The Protein % (Soybean plants; 30 g/ha, timing R2 and R5.5) was 38.56%, the Yield (Soybean plants; 30 g/ha, timing R2 and R5.5) was 3844.44 kg/ha and the Protein % (Soybean plants; 30 g/ha, timing R3) was 38.33%. It also gave a Yield (Soybean plants; 30 g/ha, timing R3) of 3747.24 kg/ha, a Protein % (Soybean plants; 30 g/ha, timing R3 and R5.5) of 37.87% and a Yield (Soybean plants; 30 g/ha, timing R3 and R5.5) of 3946.68 kg/ha. It also gave a Protein % (Soybean plants; 30 g/ha, timing R5.5) of 37.58%, a Yield (Soybean plants; 30 g/ha, timing R5.5) of 3817.80 kg/ha and a Protein % (Soybean plants; [5]) of 38.62%. For the same molecule, the Yield (Soybean plants; [5]) was 3923.64 kg/ha, the Protein % (Soybean plants; [6]) was 37.89% and the Yield (Soybean plants; [6]) was 4167.00 kg/ha.

In the case of O=C(O)Cc1cccc2ccccc12 [NAA, 1-naphthaleneacetic acid], the “number of dropped fruit per tree” value ([1]; day 0 after treatment, UTC 0) is reported as 0, the “number of dropped fruit per tree” value ([1]; day 7 after treatment, UTC 18) is reported as 5 and the “number of dropped fruit per tree” value ([1]; day 21 after treatment, UTC 45) is reported as 20. The “number of dropped fruit per tree” value ([1]; day 28 after treatment, UTC 115) was 65, the “number of dropped fruit per tree” value ([1]; day 35 after treatment, UTC 195) was 118 and the “number of dropped fruit per tree” value ([1]; day 62 after treatment, UTC 30) was 11.
